From US9750789B2, “Use of matrix metalloproteinase inhibitors to treat tuberculosis” (priority 2011, dated 2017)
Values after ≈ are worked out from the molar mass of the structure shown. “Also recorded” adds a separate entry of the source.

Key:
[1] = system: primary human bronchial epithelial cells; assay: Total protein in bronchial epithelial cell culture supernatants (Bradford); conditions: Bradford analysis, data not shown
bioluminescent Mtb [2] = assay: microbe, parasite or virus in culture; assay type: cell-based, Mycobacterium tuberculosis
[3] = MacArthur et al 1978; cited from earlier work
bioluminescent Mtb [4] = assay: MIC determination with bioluminescent Mtb; assay type: cell-based, Mycobacterium tuberculosis
[5] = system: primary human macrophages; assay: Total protein accumulation in cell culture supernatants (Bradford); conditions: macrophage supernatants, doxycycline groups
MMP-1 [6] = conditions: Rand et al 2009; cited from earlier work
MMP-1 [7] = assay: MMP-1 secretion by stimulated primary human monocytes; assay type: cell-based; conditions: Pam3Cys 5 μg/ml, 24 h

With `C[C@H]1c2cccc(O)c2C(=O)C2=C(O)[C@]3(O)C(=O)C(C(N)=O)=C(O)[C@@H](N(C)C)[C@@H]3[C@@H](O)[C@@H]21` [Doxycycline, doxycycline] as the molecule, how does the “total protein in cell culture supernatants” value [1] read?
The value was “no different between groups”.

What about the MBC/MIC ratio (bioluminescent Mtb [2]) of the same molecule?
The MBC/MIC ratio was 16.

And the MBC (bioluminescent Mtb [2]; Mycobacterium tuberculosis, 72 h, luminescence monitored over 3 days, read-out: minimum bactericidal concentration (MBC))?
Its MBC is 40 µg/mL (≈ 90 µM).

What about the “peak concentration in serum” value [3] of the same molecule?
The value was 3.2 µg/mL.

What about the “drop in relative light units” value (bioluminescent Mtb [4]; 2.5 μg/ml doxycycline, at 2 days) of the same molecule?
Its value is 1 log.

And the MIC (bioluminescent Mtb [4]; Mycobacterium tuberculosis, bioluminescent Mtb, confirmed by Resazurin, read-out: minimum inhibitory concentration (MIC))?
Its MIC is 2.5 µg/mL (≈ 5.63 µM).

What about the “protein accumulation in the cell culture supernatants” value [5] of the same molecule?
The value was “the same in each group”.

With `Nc1ccc(C(=O)O)c(O)c1` [P-amino-salicylic acid] as the molecule, how does the “MMP-1 secretion by Mtb-infected macrophages” value (MMP-1 [6]) read?
Its value is “inhibits”.

Which MMP-1 secretion (MMP-1 [7]) does the source give for Pam3Cys here?
The MMP-1 secretion was “increased; also recorded: up-regulated MMP-1 equivalently to live Mtb”.
